Legend:
[1] = Phase 1 clinical trial, multiple ascending dose (MAD) pharmacokinetics; type: in vivo, human; conditions: for Cmax / half-life / AUC(0-t): human, in vivo; for AUC(0-t): read-out: Mean AUC0-12
Description: PK data are presented below.

[2] = tested on: malondialdehyde (MDA); assay: Plasma malondialdehyde (MDA) in Phase 1 subjects administered I-1 orally; type: in vivo, human; conditions: healthy volunteers
[3] = Pharmacokinetic comparison of ADX-102 (reproxalap) and compound I-1 in rats; type: in vivo, Sprague-Dawley rats
Experimental: Compound I-1 is the des-chloro analog of ADX-102. […] We have therefore investigated compound I-1 in 90-day toxicology studies in rat and dog as well as 10-day studies in man. We compared two data sets to contrast the pharmacokinetics of the two test articles. A 50 mg/kg oral dose PK study of compound I-1 was conducted in Sprague-Dawley rats using methylcellulose suspension. […] Both studies also incorporated intravenous administration in captisol for the calculation of clearance and steady state volume of distribution.
Both studies were dosed by oral gavage. Bioanalysis was conducted using LC-MS/MS. Further details of the experimental approach can be found in the individual reports.

[4] = Tolerability as a systemic dose, I-1 versus ADX-102; type: in vivo
Experimental: Compound I-1 is the des-chloro analog of ADX-102. […] We have therefore investigated compound I-1 in 90-day toxicology studies in rat and dog as well as 10-day studies in man. We compared two data sets to contrast the pharmacokinetics of the two test articles. A 50 mg/kg oral dose PK study of compound I-1 was conducted in Sprague-Dawley rats using methylcellulose suspension. A pharmacokinetic study of ADX-102 was also conducted in Sprague Dawley rats at a dose of 10 mg/kg in a methylcellulose suspension that also contained Tween 80. Both studies also incorporated intravenous administration in captisol for the calculation of clearance and steady state volume of distribution.

[5] = Solubility of I-1 drug substance; type: physicochemical
Description: Spray-drying was selected for formulation of this compound. By co-precipitating the compound with a polymer in a stable amorphous solid dispersion, spray-drying improved the dissolution rates and enhanced the bioavailability. […] This made I-1 an appropriate candidate for the application of formulation through spray drying dispersion (SDD).

[6] = Pharmacokinetic comparison of ADX-102 (reproxalap) and compound I-1 in rats; type: in vivo, Sprague-Dawley rats; conditions: Sprague-Dawley, in vivo, SD Rat
[7] = Phase 1 clinical trial, safety and tolerability (adverse events, labs, vitals, QTcF); conditions: for subjects with TEAEs, %: subjects who received I-1
Description: This Phase 1 trial was a first-in-human, randomized, double-blind, placebo-controlled trial with a 3:1 randomization of I-1 and placebo. The trial was comprised of single ascending dose (SAD) and multiple ascending dose (MAD) protocols. MAD drug exposure was 10 days of twice-per-day (BID) administration.
A total of 54 healthy volunteers were randomized across two cohorts of varying doses: 41 subjects received I-1 and 13 subjects received placebo.
Thirty-one (31) subjects were randomized to varying doses: 23 subjects received I-1 and 8 subjects received placebo.

[8] = SD Rat, oral gavage 50 mg/kg, 0.5% MC
[9] = Sprague-Dawley, in vivo, SD Rat, oral gavage 50 mg/kg, 0.5% MC

CC(C)(O)c1nc2ccccc2cc1N [I-1]
accumulation of the drug ([1]; across all cohorts): Little to no accumulation | relation of Cmax and AUC to dose ([1]; as dose increased, Phase 1 cohorts): linear correlation | Cmax ([1]; oral, 600 mg, top dose 600 mg BID, read-out: Cmax expressed as molar concentration): ~8.5 µM | half-life ([1]; oral, multiple day exposures, across cohorts and days, read-out: half-life (t1/2), range of mean values): 3.49 to 6.83 h | AUC(0-t) ([1]; po, 50 mg, oral 50 mg BID, Day 1): ~148 ng·h/mL | Cmax ([1]; po, 50 mg, oral 50 mg BID, Day 1, read-out: Mean Cmax): ~70.2 ng/mL | half-life ([1]; po, 50 mg, oral 50 mg BID, Day 1, read-out: Mean t1/2 (converted)): ~3.49 h | AUC(0-t) ([1]; po, 50 mg, oral 50 mg BID, Day 10): 252 ng·h/mL | Cmax ([1]; po, 50 mg, oral 50 mg BID, Day 10, read-out: Mean Cmax): 85.9 ng/mL | half-life ([1]; po, 50 mg, oral 50 mg BID, Day 10, read-out: Mean t1/2 (converted)): 5.25 h | AUC(0-t) ([1]; po, 150 mg, oral 150 mg BID, Day 1): ~809 ng·h/mL | Cmax ([1]; po, 150 mg, oral 150 mg BID, Day 1, read-out: Mean Cmax): ~343 ng/mL | half-life ([1]; po, 150 mg, oral 150 mg BID, Day 1, read-out: Mean t1/2 (converted)): ~4.86 h | AUC(0-t) ([1]; po, 150 mg, oral 150 mg BID, Day 10): 1170 ng·h/mL | Cmax ([1]; po, 150 mg, oral 150 mg BID, Day 10, read-out: Mean Cmax): 320 ng/mL | half-life ([1]; po, 150 mg, oral 150 mg BID, Day 10, read-out: Mean t1/2 (converted)): 6.34 h | AUC(0-t) ([1]; po, 350 mg, oral 350 mg BID, Day 1): ~2950 ng·h/mL | Cmax ([1]; po, 350 mg, oral 350 mg BID, Day 1, read-out: Mean Cmax): ~1190 ng/mL | half-life ([1]; po, 350 mg, oral 350 mg BID, Day 1, read-out: Mean t1/2 (converted)): ~5.67 h | AUC(0-t) ([1]; po, 350 mg, oral 350 mg BID, Day 10): 4340 ng·h/mL | Cmax ([1]; po, 350 mg, oral 350 mg BID, Day 10, read-out: Mean Cmax): 1230 ng/mL | half-life ([1]; po, 350 mg, oral 350 mg BID, Day 10, read-out: Mean t1/2 (converted)): 6.83 h | AUC(0-t) ([1]; po, 600 mg, oral 600 mg BID, Day 1): ~6450 ng·h/mL | Cmax ([1]; po, 600 mg, oral 600 mg BID, Day 1, read-out: Mean Cmax): ~2230 ng/mL | half-life ([1]; po, 600 mg, oral 600 mg BID, Day 1, read-out: Mean t1/2 (converted)): ~4.15 h | AUC(0-t) ([1]; po, 600 mg, oral 600 mg BID, Day 10): 7220 ng·h/mL | Cmax ([1]; po, 600 mg, oral 600 mg BID, Day 10, read-out: Mean Cmax): 1700 ng/mL | half-life ([1]; po, 600 mg, oral 600 mg BID, Day 10, read-out: Mean t1/2 (converted)): 4.66 h | Mean AUC0-12 ([1]; oral 50 mg BID, Day 1): 148 ng·h/mL | Mean AUC0-12 ([1]; oral 50 mg BID, Day 10): ~252 ng·h/mL | Mean AUC0-12 ([1]; oral 150 mg BID, Day 1): 809 ng·h/mL | Mean AUC0-12 ([1]; oral 150 mg BID, Day 10): ~1170 ng·h/mL | Mean AUC0-12 ([1]; oral 350 mg BID, Day 1): 2950 ng·h/mL | Mean AUC0-12 ([1]; oral 350 mg BID, Day 10): ~4340 ng·h/mL | Mean AUC0-12 ([1]; oral 600 mg BID, Day 1): 6450 ng·h/mL | Mean AUC0-12 ([1]; oral 600 mg BID, Day 10): ~7220 ng·h/mL | free MDA levels in plasma [2]: decrease in free MDA levels | AUC 0-inf/Dose [3, 8]: 153 | AUC 0-t/Dose [3, 8]: 146 | Vd ([3]; Sprague-Dawley, in vivo, SD Rat, intravenous data using captisol formulation, read-out: Vss): 3.13 L/kg | AUC(0-inf) [3, 9]: 7670 ng·h/mL | AUC(0-t) [3, 9]: 7300 ng·h/mL | Cmax [3, 9]: 4990 ng/mL | Tmax [3, 9]: 0.32 h | dose-normalized AUC relative to ADX-102 ([3]; rats, oral, I-1 50 mg/kg vs ADX-102 10 mg/kg): approximately double | tolerability as a systemic dose compared with ADX-102 [4]: generally better tolerated than ADX-102 | solubility in aqueous media [5]: poor solubility in aqueous media | solubility in non-polar solvents [5]: increased solubility in non-polar solvents | clearance ([6]; intravenous data using captisol formulation): 65.8 mL/min/kg | half-life ([6]; oral gavage 50 mg/kg, 0.5% MC): 2.96 h | intensity and relatedness of TEAEs ([7]; MAD): mild and deemed not to be related to the study drug | subjects with TEAEs, % ([7]; MAD): 17.4% | Pruritis, % of subjects ([7]; MAD, I-1 50 mg BID): (16.7%) | Pruritis, N subjects ([7]; MAD, I-1 50 mg BID): 1 | Rhinitis, N subjects ([7]; MAD, I-1 50 mg BID): 0 | URTI, N subjects ([7]; MAD, I-1 50 mg BID): 0 | Headache, N subjects ([7]; MAD, I-1 150 mg BID): 0 | Ligament sprain, N subjects ([7]; MAD, I-1 150 mg BID): 0 | Muscle spasms, N subjects ([7]; MAD, I-1 150 mg BID): 0 | Nasal congestion, % of subjects ([7]; MAD, I-1 150 mg BID): (16.7%) | Nasal congestion, N subjects ([7]; MAD, I-1 150 mg BID): 1 | Pruritis, N subjects ([7]; MAD, I-1 150 mg BID): 0 | Rhinitis, N subjects ([7]; MAD, I-1 150 mg BID): 0 | URTI, N subjects ([7]; MAD, I-1 150 mg BID): 0 | Headache, N subjects ([7]; MAD, I-1 350 mg BID): 0 | Ligament sprain, N subjects ([7]; MAD, I-1 350 mg BID): 0 | Muscle spasms, N subjects ([7]; MAD, I-1 350 mg BID): 0 | Nasal congestion, N subjects ([7]; MAD, I-1 350 mg BID): 0 | Pruritis, N subjects ([7]; MAD, I-1 350 mg BID): 0 | URTI, % of subjects ([7]; MAD, I-1 350 mg BID): (20.0%) | URTI, N subjects ([7]; MAD, I-1 350 mg BID): 1 | Headache, N subjects ([7]; MAD, I-1 600 mg BID): 0 | Ligament sprain, N subjects ([7]; MAD, I-1 600 mg BID): 0 | Muscle spasms, N subjects ([7]; MAD, I-1 600 mg BID): 0 | Nasal congestion, N subjects ([7]; MAD, I-1 600 mg BID): 0 | Pruritis, N subjects ([7]; MAD, I-1 600 mg BID): 0 | Rhinitis, % of subjects ([7]; MAD, I-1 600 mg BID): (16.7%) | Rhinitis, N subjects ([7]; MAD, I-1 600 mg BID): 1 | URTI, N subjects ([7]; MAD, I-1 600 mg BID): 0 | Headache, N subjects ([7]; MAD, I-1 Total): 0 | Ligament sprain, N subjects ([7]; MAD, I-1 Total): 0 | Muscle spasms, N subjects ([7]; MAD, I-1 Total): 0 | Nasal congestion, % of subjects ([7]; MAD, I-1 Total): (4.3%) | Nasal congestion, N subjects ([7]; MAD, I-1 Total): 1 | Pruritis, % of subjects ([7]; MAD, I-1 Total): (4.3%) | Pruritis, N subjects ([7]; MAD, I-1 Total): 1 | Rhinitis, % of subjects ([7]; MAD, I-1 Total): (4.3%) | Rhinitis, N subjects ([7]; MAD, I-1 Total): 1 | URTI, % of subjects ([7]; MAD, I-1 Total): (4.3%) | URTI, N subjects ([7]; MAD, I-1 Total): 1 | QTcF prolongation ([7]; Phase 1): did not lead to QTcF prolongation | changes in heart rate, blood pressure, respiratory rate, pulse oximetry, temperature ([7]; Phase 1): No clinically meaningful changes | changes in hepatic or renal analytes (ALT, AST, ALP, amylase, GGT, bilirubin, creatinine kinase, creatinine) ([7]; Phase 1): No clinically meaningful changes | changes in serum glucose ([7]; Phase 1): No changes | hematological changes ([7]; Phase 1): No clinically significant hematological changes | subjects with QTcF ≥500 msec or a change of ≥60 msec from baseline ([7]; Phase 1): no subjects | subjects with QTcF change of >30 msec from baseline ([7]; Phase 1, three in SAD, two in MAD): Five | interruptions or discontinuations of study drug administration ([7]; Phase 1 SAD and MAD): no interruptions or discontinuations | overall safety and tolerability ([7]; Phase 1 SAD and MAD): safe and tolerable | TEAE description ([7]; SAD, one subject in 100 mg dose cohort): syncope lasting less than a minute, moderate in intensity and deemed to be related to the study drug | TEAE description ([7]; SAD, one subject, single dose of 700 mg): sinus congestion, mild in intensity and deemed not to be related to I-1 | subjects with TEAEs, % ([7]; SAD): 3.7% | subjects with treatment emergent adverse events (TEAEs), % ([7]; all subjects receiving I-1 (SAD and MAD)): 9.4%
